From ChEMBL document CHEMBL5126521, “Analgesic Opioid Ligand Discovery Based on Nonmorphinan Scaffolds Derived from Natural Sources” (J Med Chem, 2022)
Square brackets hold non-standard residues; d marks the D form. Peptide text beside a SMILES is read from it.

Key:
Mus musculus [1] = experiment: Antinociceptive activity in mouse administered po by tail pressure test; type: functional
Mus musculus [2] = experiment: Antinociceptive activity in mouse administered icv; type: functional
Mu-type opioid receptor [3] = target: Mu-type opioid receptor (Cavia porcellus, UniProt P97266); experiment: Antagonist activity at guinea pig ileum MOP; type: functional, tissue-based
Mus musculus [4] = experiment: Antinociceptive activity in mouse administered sc by tail pressure test; type: functional
Mus musculus [5] = species on record: Mus musculus; experiment: Antinociceptive activity in mouse by tail pressure test; type: functional
Mus musculus [6] = experiment: Antinociceptive activity in mouse administered IT by tail pressure test; type: functional
Mu-type opioid receptor [7] = target: T1, Mu-type opioid receptor (Mus musculus, UniProt P42866); experiment: Antagonist activity at mouse vas deferns MOP; type: functional
Mu-type opioid receptor [8] = target: T1, Mu-type opioid receptor; experiment: Antagonist activity at mouse brain homogenate MOP; type: functional, tissue-based
Rattus norvegicus [9] = experiment: Antinociceptive activity in rat administered icv; type: functional
Mus musculus [10] = experiment: Antinociceptive activity in mouse administered iv by hot plate test; type: functional
[11] = Toxicity in rat assessed as antinociceptive activity tolerance at 3 to10 nmol/kg measured after 5 days with 62 pmol/h icv infusion relative to control; conditions: in vivo, icv_or_intrathecal, 120 h, at 10 nmol/kg, time 5 day
Rattus norvegicus [12] = species on record: Rattus norvegicus; experiment: Antinociceptive activity in rat; type: functional; conditions: Rattus norvegicus; read-out: ED50
Mus musculus [13] = experiment: Antinociceptive activity in mouse administered IV; type: functional
Mus musculus [14] = experiment: Antinociceptive activity in icv dosed C57BL/6J mouse assessed as tail withdrawal latency from warm water; type: functional
[15] = target: T2, Kappa-type opioid receptor (Homo sapiens, UniProt P41145); experiment: Antagonist activity at human KOP stably expressed in CHO cell membrane assessed as [35S]GTPgammaS binding; type: functional, cell membranes
[16] = target: Delta-type opioid receptor (Mus musculus, UniProt P32300); experiment: Displacement of [3H]DPDPE from mouse DOP stably expressed in CHO cell membrane; type: cell membranes
Mu-type opioid receptor [17] = target: Mu-type opioid receptor (Rattus norvegicus, UniProt P33535); experiment: Displacement of [3H]DAMGO from rat MOP stably expressed in CHO cell membrane; type: cell membranes
Mu-type opioid receptor [18] = target: T3, Mu-type opioid receptor (Homo sapiens, UniProt P35372); experiment: Antagonist activity at human MOP stably expressed in CHO cell membrane assessed as [35S]GTPgammaS binding; type: functional, cell membranes
[19] = target: Kappa-type opioid receptor (Rattus norvegicus, UniProt P34975); experiment: Displacement of [3H]diprenorphine from rat KOP stably expressed in CHO cell membrane; type: cell membranes
[20] = target: T2, Kappa-type opioid receptor; experiment: Binding affinity to human KOP stably expressed in CHO cell membrane assessed as [35S]GTPgammaS binding; type: cell membranes; conditions: filed as antagonist
Mus musculus [21] = experiment: Antinociceptive activity in ddY mouse assessed as tail-flick latency administered it by tail flick test; type: functional
Mus musculus [22] = experiment: Antinociceptive activity in Std-ddY mouse at 100 mmHg pressure administered IT by tail pressure test; type: functional
Mus musculus [23] = experiment: Antinociceptive activity in ddY mouse assessed as tail-flick latency administered icv by tail flick test; type: functional
Mus musculus [24] = experiment: Antinociceptive activity in Std-ddY mouse at 100 mmHg pressure administered po by tail pressure test; type: functional
Mus musculus [25] = experiment: Antinociceptive activity in Std-ddY mouse at 100 mmHg pressure administered sc by tail pressure test; type: functional
Mus musculus [26] = experiment: Antinociceptive activity in Std-ddY mouse at 100 mmHg pressure administered icv by tail pressure test; type: functional
Mu-type opioid receptor [27] = target: T3, Mu-type opioid receptor; experiment: Agonist activity at human MOP expressed in CHO-K1 cell membrane assessed as [35S]GTPgammaS binding; type: functional, cell membranes
Mu-type opioid receptor [28] = target: T3, Mu-type opioid receptor; experiment: Displacement of [3H]DAMGO from human MOP expressed in CHO-K1 cell membrane incubated for 60 mins by Microscint-counting analysis; type: cell membranes
[29] = target: Delta-type opioid receptor (Homo sapiens, UniProt P41143); experiment: Displacement of [3H]DPDPE from human DOP expressed in CHO-K1 cell membrane incubated for 60 mins by Microscint-counting analysis; type: cell membranes
Rattus norvegicus [30] = experiment: Antinociceptive activity in Sprague-Dawley rat assessed as tail flick response in warm water administered po; type: functional
[31] = Stability in human plasma assessed as half life; type: ADME, cell-free
Mu-type opioid receptor [32] = target: T3, Mu-type opioid receptor; experiment: Agonist activity at human MOP expressed in CHO-K1 cell membrane assessed as [35S]GTPgammaS binding relative to control; type: functional, cell membranes; conditions: filed as agonist
Rattus norvegicus [33] = experiment: Antinociceptive activity in Sprague-Dawley rat assessed as tail flick response in warm water administered iv; type: functional
Rattus norvegicus [34] = experiment: Antinociceptive activity in Sprague-Dawley rat assessed as tail flick response in warm water administered icv; type: functional
[35] = Stability in rat plasma assessed as half life; type: ADME, cell-free
[36] = target: T2, Kappa-type opioid receptor; experiment: Displacement of [3H]U69593 from human KOP expressed in CHO-K1 cell membrane incubated for 60 mins by Microscint-counting analysis; type: cell membranes

T2 sequence (P41145 whole entry): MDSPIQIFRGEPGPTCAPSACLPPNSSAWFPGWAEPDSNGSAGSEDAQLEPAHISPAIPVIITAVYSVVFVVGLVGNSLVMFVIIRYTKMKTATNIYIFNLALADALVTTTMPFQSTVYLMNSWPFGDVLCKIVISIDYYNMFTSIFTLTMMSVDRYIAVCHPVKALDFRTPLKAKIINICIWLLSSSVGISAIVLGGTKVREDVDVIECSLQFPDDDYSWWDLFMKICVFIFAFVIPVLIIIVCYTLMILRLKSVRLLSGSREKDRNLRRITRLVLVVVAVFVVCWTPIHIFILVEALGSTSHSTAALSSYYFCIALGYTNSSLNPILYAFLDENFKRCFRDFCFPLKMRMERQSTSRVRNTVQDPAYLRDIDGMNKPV
Mu-type opioid receptor (Cavia porcellus, UniProt P97266), sequence (P97266 whole entry): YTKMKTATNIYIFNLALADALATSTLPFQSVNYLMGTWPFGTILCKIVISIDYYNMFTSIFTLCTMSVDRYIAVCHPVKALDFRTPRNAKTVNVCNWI
T3 sequence (P35372 whole entry): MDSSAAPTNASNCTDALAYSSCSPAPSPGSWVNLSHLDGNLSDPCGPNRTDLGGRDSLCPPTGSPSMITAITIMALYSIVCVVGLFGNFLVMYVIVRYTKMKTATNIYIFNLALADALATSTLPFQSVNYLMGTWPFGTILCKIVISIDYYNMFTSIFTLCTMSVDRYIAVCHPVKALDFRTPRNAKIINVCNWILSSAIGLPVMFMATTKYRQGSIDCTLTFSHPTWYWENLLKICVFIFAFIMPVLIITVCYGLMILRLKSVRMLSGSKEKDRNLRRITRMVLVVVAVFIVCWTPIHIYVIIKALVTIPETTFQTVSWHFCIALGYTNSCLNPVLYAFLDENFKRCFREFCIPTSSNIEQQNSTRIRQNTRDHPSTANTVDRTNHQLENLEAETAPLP
Delta-type opioid receptor (Homo sapiens, UniProt P41143), sequence (P41143 whole entry): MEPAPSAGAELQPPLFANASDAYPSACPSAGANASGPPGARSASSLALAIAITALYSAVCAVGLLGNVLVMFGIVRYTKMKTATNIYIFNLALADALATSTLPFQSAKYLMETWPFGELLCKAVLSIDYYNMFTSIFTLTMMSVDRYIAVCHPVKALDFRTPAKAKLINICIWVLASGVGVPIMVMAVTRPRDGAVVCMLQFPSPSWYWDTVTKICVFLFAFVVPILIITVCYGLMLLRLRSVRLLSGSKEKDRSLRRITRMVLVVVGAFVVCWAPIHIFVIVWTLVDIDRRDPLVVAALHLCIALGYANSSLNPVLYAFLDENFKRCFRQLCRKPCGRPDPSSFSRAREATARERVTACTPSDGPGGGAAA
Kappa-type opioid receptor (Rattus norvegicus, UniProt P34975), sequence (P34975 whole entry): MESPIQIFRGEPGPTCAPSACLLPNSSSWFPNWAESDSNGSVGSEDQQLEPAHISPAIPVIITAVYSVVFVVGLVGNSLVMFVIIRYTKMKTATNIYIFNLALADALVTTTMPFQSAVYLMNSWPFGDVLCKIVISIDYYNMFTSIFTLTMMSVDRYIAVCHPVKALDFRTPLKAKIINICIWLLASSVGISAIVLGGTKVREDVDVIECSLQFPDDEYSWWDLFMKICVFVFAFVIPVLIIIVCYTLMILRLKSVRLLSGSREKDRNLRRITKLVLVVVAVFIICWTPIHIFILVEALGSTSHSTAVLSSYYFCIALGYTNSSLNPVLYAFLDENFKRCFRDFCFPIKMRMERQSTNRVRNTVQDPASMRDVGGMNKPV
Mu-type opioid receptor (Rattus norvegicus, UniProt P33535), sequence (P33535 whole entry): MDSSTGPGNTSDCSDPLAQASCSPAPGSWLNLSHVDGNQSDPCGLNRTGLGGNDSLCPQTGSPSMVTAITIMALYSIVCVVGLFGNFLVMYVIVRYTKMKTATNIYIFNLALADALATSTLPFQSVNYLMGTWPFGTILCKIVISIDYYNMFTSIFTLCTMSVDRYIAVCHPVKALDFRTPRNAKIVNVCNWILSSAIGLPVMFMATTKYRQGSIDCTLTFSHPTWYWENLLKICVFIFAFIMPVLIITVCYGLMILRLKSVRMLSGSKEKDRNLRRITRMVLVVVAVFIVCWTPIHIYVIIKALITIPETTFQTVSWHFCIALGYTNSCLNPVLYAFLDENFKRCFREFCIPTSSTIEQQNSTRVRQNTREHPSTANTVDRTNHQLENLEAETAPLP
T1 sequence (P42866 whole entry): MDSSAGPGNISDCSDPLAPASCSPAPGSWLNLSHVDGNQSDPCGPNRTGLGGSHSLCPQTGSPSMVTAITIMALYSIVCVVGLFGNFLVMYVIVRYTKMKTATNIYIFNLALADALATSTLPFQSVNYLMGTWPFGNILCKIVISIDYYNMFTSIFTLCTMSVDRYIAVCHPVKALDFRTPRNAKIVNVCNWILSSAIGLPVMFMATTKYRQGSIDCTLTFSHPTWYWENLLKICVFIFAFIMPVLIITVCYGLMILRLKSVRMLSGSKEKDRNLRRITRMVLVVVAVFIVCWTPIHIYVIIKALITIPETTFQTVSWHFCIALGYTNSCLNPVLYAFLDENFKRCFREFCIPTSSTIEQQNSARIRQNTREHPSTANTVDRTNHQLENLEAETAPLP
Delta-type opioid receptor (Mus musculus, UniProt P32300), sequence (P32300 whole entry): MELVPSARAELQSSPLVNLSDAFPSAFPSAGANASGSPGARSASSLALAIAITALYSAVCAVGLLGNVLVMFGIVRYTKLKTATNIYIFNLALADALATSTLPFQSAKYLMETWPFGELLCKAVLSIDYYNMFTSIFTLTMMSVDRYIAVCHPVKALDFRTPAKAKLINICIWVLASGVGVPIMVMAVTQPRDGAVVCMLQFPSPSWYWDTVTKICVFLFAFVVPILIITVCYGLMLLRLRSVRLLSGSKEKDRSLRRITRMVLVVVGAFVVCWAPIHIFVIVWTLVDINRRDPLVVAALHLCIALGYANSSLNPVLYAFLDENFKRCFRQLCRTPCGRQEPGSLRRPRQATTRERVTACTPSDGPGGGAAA

N=C(N)NCCC[C@@H](NC(=O)[C@@H](N)Cc1ccc(O)cc1)C(=O)N[C@@H](Cc1ccccc1)C(N)=O
ED50 (Mus musculus [1]): 103 µmol/kg
ED50 (Mus musculus [2]): 210 pmol
IC50 (Mu-type opioid receptor [3]): 240 nM
ED50 (Mus musculus [4]): 1 µmol/kg

N=C(N)NCCC[C@@H](NC(=O)[C@@H](N)Cc1ccc(O)cc1)C(=O)N[C@@H](Cc1ccccc1)C(=O)NCC(=O)O (H-Y[dR]FG-OH)
ED50 (Mus musculus [5]): 5.8 pmol
ED50 (Mus musculus [6]): 1 pmol
ED50 (Mus musculus [2]): 10.3 pmol
IC50 (Mu-type opioid receptor [3]): 10.8 nM

C[C@@H](NC(=O)[C@@H](N)Cc1ccc(O)cc1)C(=O)N[C@@H](Cc1ccccc1)C(=O)NCC(=O)N[C@@H](Cc1ccc(O)cc1)C(=O)N1CCC[C@H]1C(=O)N[C@@H](CO)C(N)=O [DERMORPHIN]
ED50 (Mus musculus [5]; Mus musculus, read-out: ED50): 4.6 µmol/kg
IC50 (Mu-type opioid receptor [7]): 16.5 nM
ED50 (Mus musculus [2]): 6.7 pmol
IC50 (Mu-type opioid receptor [8]): 0.76 nM
ED50 (Rattus norvegicus [9]): 23 pmol
ED50 (Mus musculus [10]): 1 µmol/kg
Activity [11]: 63%
ED50 (Rattus norvegicus [12]): 1.5 µmol/kg
ED50 (Mus musculus [13]): 0.46 µmol/kg
IC50 (Mu-type opioid receptor [3]): 1.1 nM

C[C@@H]1NC(=O)[C@H]2CCCN2C(=O)[C@H](Cc2ccccc2)NC(=O)[C@@H](Cc2c[nH]c3ccccc23)NC1=O
ED50 (Mus musculus [14]): 1.04 nmol
IC50 [15]: 397 nM
Ki [16]: 10000 nM
Ki (Mu-type opioid receptor [17]): 299 nM
IC50 (Mu-type opioid receptor [18]): 1470 nM
Ki [19]: 167 nM

C[C@@H]1C(=O)N[C@@H](Cc2ccccc2)C(=O)N[C@H](Cc2c[nH]c3ccccc23)C(=O)N[C@@H](Cc2ccccc2)C(=O)N1C
ED50 (Mus musculus [14]): 4.19 nmol
Ki (Mu-type opioid receptor [17]): 257 nM
IC50 (Mu-type opioid receptor [18]): 321 nM
Ki [19]: 76.9 nM
Kb [20]: 103 nM

N=C(N)NCCC[C@@H](NC(=O)[C@@H](N)Cc1ccc(O)cc1)C(=O)N[C@@H](Cc1ccccc1)C(=O)NCCC(=O)O
ED50 (Mus musculus [21]): 0.3 pmol
ED50 (Mus musculus [22]): 0.5 pmol
ED50 (Mus musculus [23]): 1.3 pmol
ED50 (Mus musculus [24]): 70.1 µmol/kg
ED50 (Mus musculus [25]): 0.8 µmol/kg
ED50 (Mus musculus [26]): 3.1 pmol

NC(=O)[C@@H]1CCCCNC(=O)CC[C@@H](NC(=O)[C@@H](N)Cc2ccc(O)cc2)C(=O)N[C@@H](Cc2ccccc2)C(=O)N[C@@H](Cc2ccccc2)C(=O)N1
EC50 (Mu-type opioid receptor [27]): 1.5 nM
Ki (Mu-type opioid receptor [28]): 0.96 nM
Ki [29]: 82 nM
ED50 (Rattus norvegicus [30]): 3.5 µmol

NC(=O)CNC(=O)[C@@H]1CCC(=O)NCCCC[C@@H](NC(=O)[C@@H](N)Cc2ccc(O)cc2)C(=O)N[C@@H](Cc2c[nH]c3ccccc23)C(=O)N[C@@H](Cc2ccccc2)C(=O)N1
half-life [31]: 150 h
EC50 (Mu-type opioid receptor [27]): 1.01 nM
Ki (Mu-type opioid receptor [28]): 0.68 nM
Emax (Mu-type opioid receptor [32]): 100%
ED50 (Rattus norvegicus [33]): 1.5 mg/kg
Ki [29]: 127 nM
ED50 (Rattus norvegicus [34]): 0.019 nmol
half-life [35]: 81 h
Ki [36]: 5120 nM
